Experimental data reported in ChEMBL document CHEMBL1201862, “PubChem BioAssay data set” (2004).
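The compound was tested at five concentrations on cells cultured in 96-well plates, with a 48-hour exposure period. Abbreviation: GI50, concentration required for 50% inhibition of growth.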 The source made the active and inactive calls. Rule as the data show it: active = GI50 up to about 1.1 µM and inactive = higher.

Legend:
Assay in all cases: growth of human tumour cells (NCI), 48 h
NCI-H226 = system: NCI-H226
RXF 393 = system: RXF 393
OVCAR-3 = system: OVCAR-3
DMS-114 = system: DMS-114
SK-MEL-5 = system: SK-MEL-5
Malme-3M = system: Malme-3M
MCF7 = system: MCF7
A549 = system: A549
HCT-15 = system: HCT-15
UACC-62 = system: UACC-62
OVCAR-8 = system: OVCAR-8
HOP-92 = system: HOP-92
M19-MEL = system: M19-MEL
LOX IMVI = system: LOX IMVI
OVCAR-4 = system: OVCAR-4
SK-OV-3 = system: SK-OV-3
DLD-1 = system: DLD-1
SNB-75 = system: SNB-75
IGROV-1 = system: IGROV-1
HT-29 = system: HT-29
HL-60 = system: HL-60
COLO 205 = system: COLO 205
HOP-62 = system: HOP-62
A498 = system: A498
NCI-H23 = system: NCI-H23
HOP-18 = system: HOP-18
SF-295 = system: SF-295
KM-20L2 = system: KM-20L2
OVCAR-5 = system: OVCAR-5
SK-MEL-2 = system: SK-MEL-2
U-251 = system: U-251
SNB-19 = system: SNB-19
XF498 = system: XF498
DMS-273 = system: DMS-273
NCI/ADR-RES = system: NCI/ADR-RES
SF-539 = system: SF-539
EKVX = system: EKVX
SNB-78 = system: SNB-78
HCT-116 = system: HCT-116
SF-268 = system: SF-268
CAKI-1 = system: CAKI-1
K562 = system: K562
SN12C = system: SN12C
MOLT-4 = system: MOLT-4
NCI-H460 = system: NCI-H460
UO-31 = system: UO-31
UACC-257 = system: UACC-257
HCC 2998 = system: HCC 2998
RPMI-8226 = system: RPMI-8226
KM12 = system: KM12
NCI-H522 = system: NCI-H522
CCRF-CEM = system: CCRF-CEM
SK-MEL-28 = system: SK-MEL-28
SW-620 = system: SW-620
TK-10 = system: TK-10
SR = system: SR
LXFL 529 = system: LXFL 529
ACHN = system: ACHN
786-0 = system: 786-0
M14 = system: M14

## O=C1CCCCN1
NCI-H226
  GI50: 635 µM (inactive)
RXF 393
  GI50: 272 µM (inactive)
OVCAR-3
  GI50: > 1120 µM (inactive)
DMS-114
  GI50: > 1120 µM (inactive)
SK-MEL-5
  GI50: > 1120 µM (inactive)
Malme-3M
  GI50: > 1120 µM (inactive)
MCF7
  GI50: > 1120 µM (inactive)
A549
  GI50: > 1120 µM (inactive)
HCT-15
  GI50: > 1120 µM
UACC-62
  GI50: > 411 µM (inactive)
OVCAR-8
  GI50: > 1120 µM (inactive)
HOP-92
  GI50: > 1120 µM (inactive)
M19-MEL
  GI50: > 403 µM (inactive)
LOX IMVI
  GI50: > 1120 µM (inactive)
OVCAR-4
  GI50: > 1120 µM (inactive)
SK-OV-3
  GI50: > 150 µM (inactive)
DLD-1
  GI50: 879 µM (inactive)
SNB-75
  GI50: > 1120 µM (inactive)
IGROV-1
  GI50: > 1120 µM (inactive)
HT-29
  GI50: > 1120 µM (inactive)
HL-60
  GI50: 706 µM (inactive)
COLO 205
  GI50: > 1120 µM (inactive)
HOP-62
  GI50: > 1120 µM (inactive)
A498
  GI50: > 52 µM (inactive)
NCI-H23
  GI50: > 1120 µM (inactive)
HOP-18
  GI50: 232 µM (inactive)
SF-295
  GI50: > 1120 µM (inactive)
KM-20L2
  GI50: > 1120 µM (inactive)
OVCAR-5
  GI50: > 1120 µM (inactive)
SK-MEL-2
  GI50: > 1120 µM (inactive)
U-251
  GI50: > 252 µM (inactive)
SNB-19
  GI50: > 1120 µM (inactive)
XF498
  GI50: 89.3 µM (inactive)
DMS-273
  GI50: > 1120 µM (inactive)
NCI/ADR-RES
  GI50: 248 µM (inactive)
SF-539
  GI50: > 1120 µM (inactive)
EKVX
  GI50: > 258 µM (inactive)
SNB-78
  GI50: > 1120 µM (inactive)
HCT-116
  GI50: > 1120 µM (inactive)
SF-268
  GI50: > 1120 µM (inactive)
CAKI-1
  GI50: > 1120 µM (inactive)
K562
  GI50: > 1120 µM (inactive)
SN12C
  GI50: > 267 µM (inactive)
MOLT-4
  GI50: 706 µM (inactive)
NCI-H460
  GI50: > 1120 µM (inactive)
UO-31
  GI50: > 1120 µM (inactive)
UACC-257
  GI50: > 1120 µM (inactive)
HCC 2998
  GI50: 333 µM (inactive)
RPMI-8226
  GI50: > 1120 µM (inactive)
KM12
  GI50: > 1120 µM (inactive)
NCI-H522
  GI50: > 1120 µM (inactive)
CCRF-CEM
  GI50: > 1120 µM (inactive)
SK-MEL-28
  GI50: > 1120 µM (inactive)
SW-620
  GI50: > 1120 µM (inactive)

## COc1cc2c(c(OC(C)=O)c1OC(C)=O)-c1ccc(SC)c(=O)cc1C(NC(C)=O)CC2 (configuration not stated)
NCI-H226
  GI50: 6.87 µM (inactive)
RXF 393
  GI50: 8.91 µM (inactive)
TK-10
  GI50: 28.7 µM (inactive)
OVCAR-3
  GI50: 0.5 µM (active)
SR
  GI50: 0.964 µM (active)
DMS-114
  GI50: 0.618 µM (active)
SK-MEL-5
  GI50: 0.631 µM (active)
LXFL 529
  GI50: 0.955 µM (active)
Malme-3M
  GI50: 1.34 µM (inactive)
A549
  GI50: 3.73 µM (inactive)
HCT-15
  GI50: 31.7 µM
ACHN
  GI50: 24 µM (inactive)
UACC-62
  GI50: 1.12 µM (inactive)
OVCAR-8
  GI50: 3.66 µM (inactive)
HOP-92
  GI50: 0.741 µM (active)
M19-MEL
  GI50: 1.39 µM (inactive)
LOX IMVI
  GI50: 1.13 µM (inactive)
OVCAR-4
  GI50: 9.82 µM (inactive)
SK-OV-3
  GI50: > 19.5 µM (inactive)
DLD-1
  GI50: 3.91 µM (inactive)
SNB-75
  GI50: 0.255 µM (active)
IGROV-1
  GI50: 4.45 µM (inactive)
HT-29
  GI50: 2.04 µM (inactive)
HL-60
  GI50: 0.375 µM (active)
COLO 205
  GI50: 0.998 µM (active)
HOP-62
  GI50: 7.59 µM (inactive)
A498
  GI50: 4.83 µM (inactive)
NCI-H23
  GI50: 1.92 µM (inactive)
HOP-18
  GI50: > 91 µM (inactive)
SF-295
  GI50: 2.23 µM (inactive)
KM-20L2
  GI50: 1.85 µM (inactive)
OVCAR-5
  GI50: > 50.1 µM (inactive)
SK-MEL-2
  GI50: 0.565 µM (active)
U-251
  GI50: 2.49 µM (inactive)
SNB-19
  GI50: 2.65 µM (inactive)
786-0
  GI50: 3.87 µM (inactive)
XF498
  GI50: 2.75 µM (inactive)
DMS-273
  GI50: 1.41 µM (inactive)
SF-539
  GI50: 0.494 µM (active)
EKVX
  GI50: 32.1 µM (inactive)
SNB-78
  GI50: 0.48 µM (active)
HCT-116
  GI50: 1.36 µM (inactive)
M14
  GI50: 2.96 µM (inactive)
SF-268
  GI50: 1.38 µM (inactive)
CAKI-1
  GI50: 11.2 µM (inactive)
K562
  GI50: 0.483 µM (active)
SN12C
  GI50: 4.52 µM (inactive)
MOLT-4
  GI50: 1.52 µM (inactive)
NCI-H460
  GI50: 3.15 µM (inactive)
UO-31
  GI50: 89.1 µM (inactive)
UACC-257
  GI50: 1.07 µM (active)
HCC 2998
  GI50: 2.51 µM (inactive)
RPMI-8226
  GI50: 1.36 µM (inactive)
KM12
  GI50: 0.544 µM (active)
NCI-H522
  GI50: 0.379 µM (active)
CCRF-CEM
  GI50: 0.631 µM (active)
SK-MEL-28
  GI50: 3.24 µM (inactive)
SW-620
  GI50: 0.951 µM (active)

## CCN(CC)C(=O)c1c(N2CCOCC2)cc(N(CC)CC)oc1=O
NCI-H226
  GI50: > 100 µM (inactive)
RXF 393
  GI50: > 100 µM (inactive)
TK-10
  GI50: > 100 µM (inactive)
OVCAR-3
  GI50: > 100 µM (inactive)
SR
  GI50: > 100 µM (inactive)
DMS-114
  GI50: > 100 µM (inactive)
LXFL 529
  GI50: > 100 µM (inactive)
Malme-3M
  GI50: > 100 µM (inactive)
A549
  GI50: > 100 µM (inactive)
HCT-15
  GI50: > 100 µM
ACHN
  GI50: > 100 µM (inactive)
UACC-62
  GI50: > 100 µM (inactive)
OVCAR-8
  GI50: > 100 µM (inactive)
HOP-92
  GI50: > 100 µM (inactive)
M19-MEL
  GI50: > 100 µM (inactive)
LOX IMVI
  GI50: > 100 µM (inactive)
OVCAR-4
  GI50: > 100 µM (inactive)
SK-OV-3
  GI50: > 100 µM (inactive)
DLD-1
  GI50: > 100 µM (inactive)
SNB-75
  GI50: > 100 µM (inactive)
IGROV-1
  GI50: > 100 µM (inactive)
HT-29
  GI50: > 100 µM (inactive)
HL-60
  GI50: > 100 µM (inactive)
COLO 205
  GI50: > 100 µM (inactive)
HOP-62
  GI50: > 100 µM (inactive)
A498
  GI50: > 100 µM (inactive)
NCI-H23
  GI50: > 100 µM (inactive)
HOP-18
  GI50: > 100 µM (inactive)
SF-295
  GI50: > 100 µM (inactive)
KM-20L2
  GI50: > 100 µM (inactive)
SK-MEL-2
  GI50: > 100 µM (inactive)
U-251
  GI50: > 100 µM (inactive)
SNB-19
  GI50: > 100 µM (inactive)
786-0
  GI50: > 100 µM (inactive)
XF498
  GI50: > 100 µM (inactive)
DMS-273
  GI50: > 100 µM (inactive)
SF-539
  GI50: > 100 µM (inactive)
EKVX
  GI50: > 100 µM (inactive)
SNB-78
  GI50: > 100 µM (inactive)
HCT-116
  GI50: > 100 µM (inactive)
M14
  GI50: > 100 µM (inactive)
SF-268
  GI50: > 100 µM (inactive)
K562
  GI50: > 100 µM (inactive)
SN12C
  GI50: > 100 µM (inactive)
MOLT-4
  GI50: > 100 µM (inactive)
NCI-H460
  GI50: > 100 µM (inactive)
UO-31
  GI50: > 100 µM (inactive)
UACC-257
  GI50: > 100 µM (inactive)
HCC 2998
  GI50: > 100 µM (inactive)
RPMI-8226
  GI50: > 100 µM (inactive)
KM12
  GI50: > 100 µM (inactive)
NCI-H522
  GI50: > 100 µM (inactive)
CCRF-CEM
  GI50: > 100 µM (inactive)
SK-MEL-28
  GI50: > 100 µM (inactive)
SW-620
  GI50: > 100 µM (inactive)
